Data published in patent US8722123B2, “Antimicrobial composition and use as food treatment” (priority 2008, dated 2014).
Marks after values point to notes of the source that are not given here.

Key:
[1] = test system: S. typhimurium DT 104 on alfalfa seeds; test: S. typhimurium DT 104 inactivation on alfalfa seeds; assay type: cell-based, Salmonella typhimurium DT104; set-up: key to S. typhimurium DT 104 counts on seeds: +: Below the minimum detection level by direct plating (<1.7 log CFU/ml), but positive by enrichment culture.; −: Negative by direct plating and enrichment culture; settings: for S. typhimurium DT 104 counts on seeds: alfalfa seeds inoculated with 10^8 CFU/g
alfalfa seed = test: Seed germination percentage; settings: treated for 1 hour at 21° C.
Experimental: To determine the germination percentage, treated and control seeds (5 gram per replicate) were placed on the surface of a plastic tray. A second tray containing 200 ml of sterile deionized water was placed with tray with seeds and water dropped into lower tray to maintain uniform moisture. The seeds were incubated at approximately 22° C. for 72 h.

With [Ca+2].[O-]Cl.[O-]Cl [20,000 ppm, Ca(OCl)2, pH 11.4, calcium hypochlorite] the “S. typhimurium DT 104 counts on seeds” value ([1]; dried 4 h at 21° C., 0 min of exposure) was “+^b (Below the minimum detection level by direct plating (<1.7 log CFU/ml), but positive by enrichment culture.)”, the “S. typhimurium DT 104 counts on seeds” value ([1]; dried 4 h at 21° C., 1 min of exposure) was “−^c” and the “S. typhimurium DT 104 counts on seeds” value ([1]; dried 4 h at 21° C., 2 min of exposure) was “−”. For the same compound, the “S. typhimurium DT 104 counts on seeds” value ([1]; dried 4 h at 21° C., 5 min of exposure) was “−”, the “S. typhimurium DT 104 counts on seeds” value ([1]; dried 4 h at 21° C., 10 min of exposure) was “−” and the “S. typhimurium DT 104 counts on seeds” value ([1]; dried 4 h at 21° C., 20 min of exposure) was “−”. The “S. typhimurium DT 104 counts on seeds” value ([1]; dried 4 h at 21° C., 30 min of exposure) was “−”, the “S. typhimurium DT 104 counts on seeds” value ([1]; dried 4 h at 21° C., 60 min of exposure) was “−” and the “S. typhimurium DT 104 counts on seeds” value ([1]; dried 24 h at 21° C., 0 min of exposure) was “+ (Below the minimum detection level by direct plating (<1.7 log CFU/ml), but positive by enrichment culture.)”. For the same compound, the “S. typhimurium DT 104 counts on seeds” value ([1]; dried 24 h at 21° C., 1 min of exposure) was “+ (Below the minimum detection level by direct plating (<1.7 log CFU/ml), but positive by enrichment culture.)”, the “S. typhimurium DT 104 counts on seeds” value ([1]; dried 24 h at 21° C., 2 min of exposure) was “−” and the “S. typhimurium DT 104 counts on seeds” value ([1]; dried 24 h at 21° C., 5 min of exposure) was “−”. The “S. typhimurium DT 104 counts on seeds” value ([1]; dried 24 h at 21° C., 10 min of exposure) was “−”, the “S. typhimurium DT 104 counts on seeds” value ([1]; dried 24 h at 21° C., 20 min of exposure) was “−” and the “S. typhimurium DT 104 counts on seeds” value ([1]; dried 24 h at 21° C., 30 min of exposure) was “−”. The “S. typhimurium DT 104 counts on seeds” value ([1]; dried 24 h at 21° C., 60 min of exposure) was “−”, the “S. typhimurium DT 104 counts on seeds” value ([1]; dried 48 h at 21° C., 0 min of exposure) was “+ (Below the minimum detection level by direct plating (<1.7 log CFU/ml), but positive by enrichment culture.)” and the “S. typhimurium DT 104 counts on seeds” value ([1]; dried 48 h at 21° C., 1 min of exposure) was “+ (Below the minimum detection level by direct plating (<1.7 log CFU/ml), but positive by enrichment culture.)”. The “S. typhimurium DT 104 counts on seeds” value ([1]; dried 48 h at 21° C., 2 min of exposure) was “−”, the “S. typhimurium DT 104 counts on seeds” value ([1]; dried 48 h at 21° C., 5 min of exposure) was “−” and the “S. typhimurium DT 104 counts on seeds” value ([1]; dried 48 h at 21° C., 10 min of exposure) was “+ (Below the minimum detection level by direct plating (<1.7 log CFU/ml), but positive by enrichment culture.)”. For the same compound, the “S. typhimurium DT 104 counts on seeds” value ([1]; dried 48 h at 21° C., 20 min of exposure) was “−”, the “S. typhimurium DT 104 counts on seeds” value ([1]; dried 48 h at 21° C., 30 min of exposure) was “−” and the “S. typhimurium DT 104 counts on seeds” value ([1]; dried 48 h at 21° C., 60 min of exposure) was “−”. The “S. typhimurium DT 104 counts on seeds” value ([1]; dried 72 h at 21° C., 0 min of exposure) was “−”, the “S. typhimurium DT 104 counts on seeds” value ([1]; dried 72 h at 21° C., 1 min of exposure) was “−” and the “S. typhimurium DT 104 counts on seeds” value ([1]; dried 72 h at 21° C., 2 min of exposure) was “−”. For the same compound, the “S. typhimurium DT 104 counts on seeds” value ([1]; dried 72 h at 21° C., 5 min of exposure) was “−”, the “S. typhimurium DT 104 counts on seeds” value ([1]; dried 72 h at 21° C., 10 min of exposure) was “−” and the “S. typhimurium DT 104 counts on seeds” value ([1]; dried 72 h at 21° C., 20 min of exposure) was “+ (Below the minimum detection level by direct plating (<1.7 log CFU/ml), but positive by enrichment culture.)”. For the same compound, the “S. typhimurium DT 104 counts on seeds” value ([1]; dried 72 h at 21° C., 30 min of exposure) was “+ (Below the minimum detection level by direct plating (<1.7 log CFU/ml), but positive by enrichment culture.)”, the “S. typhimurium DT 104 counts on seeds” value ([1]; dried 72 h at 21° C., 60 min of exposure) was “−” and the “Salmonella level after treatment” value ([1]; seeds dried 24 h, 48 h, or 72 h, 5 min) was “undetectable by direct plating, but still detectable by enrichment culture”. The “germination rate of alfalfa seed” value (alfalfa seed) was 47.3%.
